Test results: patent EP0233461B2, “4,5,6-Substituted-2-pyrimidinamines” (AMERICAN CYANAMID COMPANY, priority 1986, dated 1987)
Where a name gives a salt, the structure may show the parent alone. Read-outs that look alike come from different tables or passages of the source.

Test system: human basophils
Assay: Inhibition of histamine release from immunologically stimulated human basophils
Type: cell-based
Conditions: concentration causing 50% inhibition of histamine release, by linear regression, active if IC50 ≦ 48 µM
Procedure, shortened: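 Leukocytes from sedimented human blood, washed in Tris-A and resuspended in Tris-ACM, were challenged with anti-IgE or antigen, with or without compound, for 60 min at 37 °C. Released histamine was measured fluorometrically after OPT derivatization and expressed as percent of total (perchloric acid lysate), corrected for spontaneous release.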

| Compound | IC50 (Homo sapiens, read-out: IC50) [µM] | further results |
| --- | --- | --- |
| CCc1ccc(Nc2nccc(-c3ccccn3)n2)cc1 [N-(4-Ethylphenyl)-4-(2-pyridinyl)-2-pyrimidinamine] | 2.1 | – |
| CCc1ccc(Nc2nccc(-c3cccnc3)n2)cc1 [N-(4-Ethylphenyl)-4-(3-pyridinyl)-2-pyrimidinamine] | < 48 | – |
| CCc1ccc(Nc2nccc(-c3cc[n+]([O-])cc3)n2)cc1 [N-(4-Ethylphenyl)-4-(4-pyridinyl)-2-pyrimidinamine, pyridine-1-oxide] | 17.7 | – |
| CCc1ccc(Nc2nccc(-c3ccncc3)n2)cc1 [N-(4-Ethylphenyl)-4-(4-pyridinyl)-2-pyrimidinamine] | 7.7 | – |
| CCc1ccc(Nc2nccc(-c3ccnc4ccccc34)n2)cc1 [N-(4-Ethylphenyl)-4-(4-quinolinyl)-2-pyrimidinamine] | 4 | – |
| CCc1ccc(Nc2nccc(-c3ccc(C)s3)n2)cc1 [N-(4-Ethylphenyl)-4-(5-methyl-2-thienyl)-2-pyrimidinamine] | 36.3 | – |
| CCc1ccc(Nc2nccc(-c3ccc(C)nc3)n2)cc1 [N-(4-Ethylphenyl)-4-(6-methyl-3-pyridinyl)-2-pyrimidinamine] | 13.4 | – |
| CCc1ccc(Nc2nccc(-c3cnccn3)n2)cc1 [N-(4-Ethylphenyl)-4-pyrazinyl-2-pyrimidinamine] | 2.8 | – |
| CCc1ccc(Nc2ncc(C)c(-c3ccncc3)n2)cc1 [N-(4-Ethylphenyl)-5-methyl-4-(4-pyridinyl)-2-pyrimidinamine] | < 48 | – |
| CCc1ccc(Nc2nc(C)cc(-c3ccc(C)nc3)n2)cc1 [N-(4-Ethylphenyl)-6-methyl-4-(6-methyl-3-pyridinyl)-2-pyrimidinamine] | 19.1 | – |
| Fc1ccc(Nc2nccc(-c3ccco3)n2)cc1 [N-(4-Fluorophenyl)-4-(2-furanyl)-2-pyrimidinamine] | 13.3 | – |
| Fc1ccc(Nc2nccc(-c3cccnc3)n2)cc1 [N-(4-Fluorophenyl)-4-(3-pyridinyl)-2-pyrimidinamine] | < 48 | – |
| Fc1ccc(Nc2nccc(-c3ccncc3)n2)cc1 [N-(4-Fluorophenyl)-4-(4-pyridinyl)-2-pyrimidinamine] | 1.9 | – |
| COc1ccc(Nc2nccc(-c3ccccn3)n2)cc1 [N-(4-Methoxyphenyl)-4-(2-pyridinyl)-2-pyrimidinamine] | 8.3 | – |
| COc1ccc(Nc2nccc(-c3cccs3)n2)cc1 [N-(4-Methoxyphenyl)-4-(2-thienyl)-2-pyrimidinamine] | 3.9 | – |
| COc1ccc(Nc2nccc(-c3cccnc3)n2)cc1 [N-(4-Methoxyphenyl)-4-(3-pyridinyl)-2-pyrimidinamine, phosphate] | – | IC50 (phosphate, read-out: IC50): 3.2 µM |
| COc1ccc(Nc2nccc(-c3cccnc3)n2)cc1 [N-(4-Methoxyphenyl)-4-(3-pyridinyl)-2-pyrimidinamine, sulfate] | – | IC50 (Homo sapiens): < 48 µM |
| COc1ccc(Nc2nccc(-c3cccnc3)n2)cc1 [N-(4-Methoxyphenyl)-4-(3-pyridinyl)-2-pyrimidinamine] | – | IC50 (read-out: IC50): 1.4 µM |
| COc1ccc(Nc2nccc(-c3ccsc3)n2)cc1 [N-(4-Methoxyphenyl)-4-(3-thienyl)-2-pyrimidinamine] | 15.6 | – |
| COc1ccc(Nc2nccc(-c3ccncc3)n2)cc1 [N-(4-Methoxyphenyl)-4-(4-pyridinyl)-2-pyrimidinamine] | 1 | – |
| c1ccc(-c2ccnc(NC3CCCC3)n2)nc1 [N-Cyclopentyl-4-(2-pyridinyl)-2-pyrimidinamine] | 2.2 | – |
| c1ccc(Nc2nccc(-c3cccnc3)n2)cc1 [N-Phenyl-4-(3-pyridinyl)-2-pyrimidinamine, phosphate] | – | IC50 (phosphate, read-out: IC50): 2.7 µM |
| c1ccc(Nc2nccc(-c3cccnc3)n2)cc1 [N-Phenyl-4-(3-pyridinyl)-2-pyrimidinamine, sulfate] | – | IC50 (Homo sapiens): 3 µM |
| c1ccc(Nc2nccc(-c3cccnc3)n2)cc1 [N-Phenyl-4-(3-pyridinyl)-2-pyrimidinamine] | – | IC50 (read-out: IC50): 0.9 µM |
| c1ccc(Nc2nccc(-c3ccncc3)n2)cc1 [N-Phenyl-4-(4-pyridinyl)-2-pyrimidinamine, (Z)-2-butenedioat] [N-Phenyl-4-(4-pyridinyl)-2-pyrimidinamine, (Z)-2-butenedioate (1:1)] | – | IC50 (read-out: IC50): 1 µM |
| c1ccc(Nc2nccc(-c3ccncc3)n2)cc1 [N-Phenyl-4-(4-pyridinyl)-2-pyrimidinamine, compound with 2-h] [N-Phenyl-4-(4-pyridinyl)-2-pyrimidinamine, compound with 2-hydroxy-1,2,3-propanetricarboxylate (2:1)] | – | IC50 (read-out: IC50): 3.5 µM |
| c1ccc(Nc2nccc(-c3ccncc3)n2)cc1 [N-Phenyl-4-(4-pyridinyl)-2-pyrimidinamine, dihydrochloride] | – | IC50 (dihydrochloride, read-out: IC50): 3 µM |
| c1ccc(Nc2nccc(-c3ccncc3)n2)cc1 [N-Phenyl-4-(4-pyridinyl)-2-pyrimidinamine, dinitrate] | – | IC50 (dinitrate): 1.2 µM |
| c1ccc(Nc2nccc(-c3ccncc3)n2)cc1 [N-Phenyl-4-(4-pyridinyl)-2-pyrimidinamine, phosphate] | – | IC50 (phosphate, read-out: IC50): 3.3 µM |
| c1ccc(Nc2nccc(-c3ccncc3)n2)cc1 [N-Phenyl-4-(4-pyridinyl)-2-pyrimidinamine] | – | IC50 (read-out: IC50): 0.9 µM |

Further lines, with some results ahead:

| IC50 (Homo sapiens, read-out: IC50) [µM] | Compound | further results |
| --- | --- | --- |
| 4.6 | CNC(=O)c1ccc(Nc2nccc(-c3cccnc3)n2)cc1 [N-Methyl-4-[[4-(3-pyridinyl)-2-pyrimidinyl]amino]benzamide] | – |
| 1.4 | CNc1ccc(Nc2nccc(-c3ccccn3)n2)cc1 [N-Methyl-N'-[4-(2-pyridinyl)-2-pyrimidinyl]-1,4-benzenediamine] | – |
| 2.1 | CNc1ccc(Nc2nccc(-c3cccnc3)n2)cc1 [N-Methyl-N'-[4-(3-pyridinyl)-2-pyrimidinyl]-1,4-benzenediamine] | – |
| 0.6 | CC(=O)N(C)c1ccc(Nc2nccc(-c3ccccn3)n2)cc1 [N-Methyl-N-[4-[[4-(2-pyridinyl)-2-pyrimidinyl]amino]phenyl]acetamide] | – |
| 1.1 | CC(=O)N(C)c1ccc(Nc2nccc(-c3cccnc3)n2)cc1 [N-Methyl-N-[4-[[4-(3-pyridinyl)-2-pyrimidinyl]amino]phenyl]acetamide] | – |
| 0.1 | CC(=O)N(C)c1ccc(Nc2nccc(-c3ccncc3)n2)cc1 [N-Methyl-N-[4-[[4-(4-pyridinyl)-2-pyrimidinyl]amino]phenyl]acetamide] | – |
| 31.7 | c1ccc(Nc2nccc(-c3cccs3)n2)cc1 [N-Phenyl-4-(2-thienyl)-2-pyrimidinamine] | – |
| 3 | c1ccc(Nc2nccc(-c3ccnc4ccccc34)n2)cc1 [N-Phenyl-4-(4-quinolinyl)-2-pyrimi-dinamine] | – |
| 4.6 | CC(NC=O)c1cccc(Nc2nccc(-c3cccnc3)n2)c1 (stereo not shown) [N-[1-[3-[[4-(3-Pyridinyl)-2-pyrimidinyl]amino]phenyl]ethyl]formamide] | – |
| 0.4 | CC(NC=O)c1ccc(Nc2nccc(-c3cccnc3)n2)cc1 (stereo not shown) [N-[1-[4-[[4-(3-Pyridinyl)-2-pyrimidinyl]amino]phenyl]ethyl]formamide] | – |
| 0.8 | CCN(CC)CCNC(=O)c1ccc(Nc2nccc(-c3cccnc3)n2)cc1 [N-[2-(Diethylamino)ethyl]-4-[[4-(3-pyridinyl)-2-pyrimidinyl]amino]benzamide] | – |
| 1.2 | CC(=O)Nc1ccc(Nc2nccc(-c3ccncc3)n2)cc1C [N-[2-Methyl-4-[[4-(4-pyridinyl)-2-pyrimidinyl]amino]phenyl]acetamide] | – |
| 5.1 | CC(N)c1cccc(Nc2nccc(-c3cccnc3)n2)c1 (stereo not shown) [N-[3-(1-Aminoethyl)phenyl)-4-(3-pyridinyl)-2-pyrimidinanine, trihydrochloride] | – |
| 0.1 | c1ccc(-c2ccnc(Nc3cccc(-n4ccnc4)c3)n2)nc1 [N-[3-(1H-Imidazol-1-yl)phenyl]-4-(2-pyridinyl)-2-pyrimidinamine] | – |
| 0.2 | c1cc(Nc2nccc(-c3cccs3)n2)cc(-n2ccnc2)c1 [N-[3-(1H-Imidazol-1-yl)phenyl]-4-(2-thienyl)-2-pyrimidinamine] | – |
| 0.1 | c1cncc(-c2ccnc(Nc3cccc(-n4ccnc4)c3)n2)c1 [N-[3-(1H-Imidazol-1-yl)phenyl]-4-(3-pyridinyl)-2-pyrimidinamine] | – |
| 0.4 | c1cc(Nc2nccc(-c3ccncc3)n2)cc(-n2ccnc2)c1 [N-[3-(1H-Imidazol-1-yl)phenyl]-4-(4-pyridinyl)-2-pyrimidinamine] | – |
| 1.3 | CCN(CC)CCOc1cccc(Nc2nccc(-c3ccco3)n2)c1 [N-[3-[2-(Diethylamino)ethoxy]phen-yl]-4-(2-furanyl)-2-pyrimidinamine] | – |
| 0.6 | CCN(CC)CCOc1cccc(Nc2nccc(-c3cccs3)n2)c1 [N-[3-[2-(Diethylamino)ethoxy]phen-yl]-4-(2-thienyl)-2-pyrimidinamine] | – |
| 2.8 | CCN(CC)CCOc1cccc(Nc2nccc(-c3cccnc3)n2)c1 [N-[3-[2-(Diethylamino)ethoxy]phenyl]-4-(3-pyridinyl)-2-pyrimidinamine] | – |
| 0.7 | CCN(CC)CCOc1cccc(Nc2nccc(-c3ccncc3)n2)c1 [N-[3-[2-(Diethylamino)ethoxy]phenyl]-4-(4-pyridinyl)-2-pyrimidinamine] | – |
| 0.3 | CC(=O)Nc1cccc(Nc2nccc(-c3ccccn3)n2)c1 [N-[3-[[4-(2-Pyridinyl)-2-pyrimidinyl]amino]-phenyl]acetamide] | – |
| 5 | CC(=O)Nc1cccc(Nc2nccc(-c3cccnc3)n2)c1 [N-[3-[[4-(3-Pyridinyl)-2-pyrimidinyl]amino]-phenyl]acetamide] | – |
| 2.1 | CC(=O)Nc1cccc(Nc2nccc(-c3ccncc3)n2)c1 [N-[3-[[4-(4-Pyridinyl)-2-pyrimidinyl]amino]-phenyl]acetamide] | – |
| 4.6 | CC(C)(C)c1ccc(Nc2nccc(-c3cccs3)n2)cc1 [N-[4-(1,1-Dimethylethyl)phenyl]-4-(2-thienyl)-2-pyrimidinamine] | – |
